According to publication PMC4754833, “Rilpivirine analogs potently inhibit drug-resistant HIV-1 mutants” (Retrovirology, 2016):
Read-outs that look alike come from different tables or passages of the source.

How the values were obtained:
[1] = system: HIV-1 RT mutant K103N/P225H; assay: single round infection assay, K103N/P225H; format: cell-based; conditions: Human immunodeficiency virus 1
Procedure: (§1) The human osteosarcoma cell line, HOS, was obtained from Dr. Richard Schwartz (Michigan State University, East Lansing, MI) and grown in Dulbecco’s modified Eagle’s medium (Invitrogen, Carlsbad, CA) supplemented with 5 % (v/v) fetal bovine serum, 5 % newborn calf serum, and penicillin (50 units/ml) plus streptomycin (50 µg/ml; Quality Biological, Gaithersburg, MD). Virion production and single-round infectivity assays were used to determine antiviral activity (IC50 values) of the compounds as previously described.
(§2) pNLNgoMIVR-ΔEnv.LUC has been described previously. The RT open reading frame was removed from pNLNgoMIVR-ΔEnv.LUC (digestion with SpeI and SalI) and inserted between the SpeI and SalI sites of pBluescript II KS+. Using that construct as the wild-type template, we prepared the following HIV-1 RT mutants using the QuikChange II XL (Stratagene, La Jolla, CA) site-directed mutagenesis protocol kit: L100I, K103N, Y181C, Y188L, H221Y, K103N/Y181C, G190A, G190S, M230L, P236L, L100I/K103N, K103N/P225H, V106A/G190A/F227L, V106A, L234I, V106A/F227L, V106A/L234I, V106A/F227L/L234I, E40K, D67E, K101E, V111A, E138K, M184I, M184V, K101E/M184I, K101E/M184V, E138K/M184I, E138K/M184V, K101P, Y181I, and K101P/V179I. The following sense oligonucleotides were used with matching cognate antisense oligonucleotides (not shown) (Integrated DNA Technologies, Coralville, IA) in the mutagenesis: L100I, 5′-[…]-3′; L100I 2-103, 5′-[…]-3′; K103N, 5′-[…]-3′; Y181C, 5′-[…]-3′; Y188L, 5′-[…]-3′; H221Y, 5′-[…]-3′; G190A, 5′-[…]-3′; G190S, 5′-[…]-3′; P225H, 5′-[…]-3′; F227, 5′-[…]-3′; M230L, 5′-[…]-3′; P236L, 5′-[…]-3′; V106A, 5′-[…]-3′; L234I, 5′-[…]-3′; E40K, 5′-[…]-3′; D67E, 5′-[…]-3′; K101E, 5′-[…]-3′; V111A, 5′-[…]-3′; E138K, 5′-[…]-3′; M184I, 5′-[…]-3′; M184V, 5′-[…]-3′; K101P, 5′-[…]-3′; Y181I, 5′-[…]-3′; K101P/V179I, 5′-[…]-3′. The double mutants K103N/Y181C, K103N/P225H, and L100I/K103N were made using the previously generated K103N mutant and the appropriate oligonucleotides to add the second mutation, Y181C, P225, and L100I respectively. The double mutants V106A/F227L and V106A/L234I were prepared using the previously generated V106A mutant and the appropriate oligonucleotides to add the second mutation, F227L and L234I, respectively. The double mutants K101E/M184I and K101E/M184V were constructed using the previously generated K101E mutant and the appropriate oligonucleotides to add the second mutation, M184I and M184V, respectively. The double mutants E138K/M184I and E138K/M184V were constructed using the previously generated E138K mutant and the appropriate oligonucleotides for the second mutation, M184I and M184V, respectively. The triple mutant V106A/F227L/L234I was made using the previously generated V106A/F227L double mutant and the appropriate oligonucleotides for the third mutation, L234I. The triple mutant V106A/G190A/F227L was constructed in a series of steps using the previously generated V106A mutant and the appropriate oligonucleotides for the second mutation, G190A, to generate the double mutant V106A/G190A, and then the triple mutant was made using double mutant V106A/G190A and oligonucleotides for the third mutation, F227L. The DNA sequence of each construct was verified by DNA sequence determination. The sequences encoding the mutant RTs were then subcloned into pNLNgoMIVR-ΔEnv.LUC (between the KpnI and SalI sites) to produce the mutant HIV-1 constructs. These DNA sequences were also checked independently by DNA sequence determination.
(§3) 10.1186/s12977-016-0244-2 The IC50 values (nM) of RPV and the RPV analogs were determined against the NNRTI resistant mutants were measured by using a single round infection assay, n = 4. The concentrations (nM) are measured by reductions in luciferase reporter activity followed by the standard deviations. […]

HIV-1 RT mutant D67E = assay: single round infection assay, D67E; format: cell-based; conditions: D67E vs WT
Procedure: as §1, §2, §3

[2] = system: HIV-1 RT mutant V106A/G190A/F227L; assay: single round infection assay, V106A/G190A/F227L; format: cell-based
Procedure: as §1, §2, §3

HIV-1 RT mutant H221Y = system: HIV-1 RT mutant H221Y; design: method as in PMID 23217210; conditions: previous study; cited from earlier work
HIV-1 RT mutant G190A = assay: single round infection assay, G190A; format: cell-based; conditions: Human immunodeficiency virus 1
Procedure: as §1, §2, §3

[3] = system: HIV-1 RT mutant E138K/M184I; assay: single round infection assay, E138K/M184I; format: cell-based; conditions: E138K/M184I vs WT
Procedure: as §1, §2, §3

HIV-1 RT mutant G190S = assay: single round infection assay, G190S; format: cell-based; conditions: Human immunodeficiency virus 1
Procedure: as §1, §2, §3

HIV-1 RT mutant P236L = assay: single round infection assay, P236L; format: cell-based
Procedure: as §1, §2, §3

HIV-1 RT mutant Y181C = system: HIV-1 RT mutant Y181C; design: method as in PMID 23217210; conditions: previous study; cited from earlier work
[4] = system: HIV-1 RT mutant K101P/V179I; assay: single round infection assay, K101P/V179I; format: cell-based
Procedure: as §1, §2, §3

[5] = system: HIV-1 RT mutant V106A/F227L/L234I; assay: single round infection assay, V106A/F227L/L234I; format: cell-based; conditions: for IC50: ± SD, n=4
Procedure: as §1, §2, §3

HIV-1 RT mutant E138K = assay: single round infection assay, E138K; format: cell-based; conditions: E138K vs WT
Procedure: as §1, §2, §3

HIV-1 RT mutant K103N = system: HIV-1 RT mutant K103N; design: method as in PMID 23217210; conditions: previous study; cited from earlier work
HIV-1 RT mutant L100I = system: HIV-1 RT mutant L100I; design: method as in PMID 23217210; conditions: previous study; cited from earlier work
WT HIV-1 [6] = conditions: previous study; cited from earlier work
[7] = system: HIV-1 RT mutant K103N/Y181C; design: method as in PMID 23217210; conditions: previous study; cited from earlier work
HIV-1 RT mutant Y181I = assay: single round infection assay, Y181I; format: cell-based
Procedure: as §1, §2, §3

HIV-1 RT mutant M230L = assay: single round infection assay, M230L; format: cell-based; conditions: M230L vs WT
Procedure: as §1, §2, §3

[8] = system: HIV-1 RT mutant V106A/F227L; assay: single round infection assay, V106A/F227L; format: cell-based; conditions: V106A/F227L vs WT
Procedure: as §1, §2, §3

WT HIV-1 [9] = assay: single round infection luciferase assay, WT HIV-1; format: cell-based; conditions: Human immunodeficiency virus 1
Procedure: as §1, §2, §3

HIV-1 RT mutant K101P = assay: single round infection assay, K101P; format: cell-based
Procedure: as §1, §2, §3

In the case of `Cc1cc(/C=C/C#N)cc(C)c1Nc1nc(Nc2ccc(C#N)cc2)nc2[nH]cnc12` [compound 11], the IC50 [1] is reported as 0.22 ± 0.06 nM, the “fold-change of IC50 of the mutant relative to WT” value (HIV-1 RT mutant D67E) is reported as under 2 and the IC50 ([2]; Human immunodeficiency virus 1) is reported as 0.98 ± 0.17 nM. For the same compound, the “fold-change of IC50 of the mutant relative to WT” value ([2]; V106A/G190A/F227L vs WT) was under 2, the IC50 (HIV-1 RT mutant H221Y) was under 7 nM and the IC50 (HIV-1 RT mutant G190A) was 0.45 ± 0.01 nM. For the same compound, the “fold-change of IC50 of the mutant relative to WT” value [3] was under 2, the IC50 (HIV-1 RT mutant G190S) was 0.2 ± 0.07 nM and the IC50 (HIV-1 RT mutant P236L; Human immunodeficiency virus 1) was 0.87 ± 0.2 nM. For the same compound, the “fold-change of IC50 of the mutant relative to WT” value (HIV-1 RT mutant P236L; P236L vs WT) was under 2, the IC50 (HIV-1 RT mutant Y181C) was under 7 nM and the IC50 ([4]; Human immunodeficiency virus 1) was 2.5 nM. The “fold-change of IC50 of the mutant relative to WT” value ([4]; K101P/V179I vs WT) was 4, the IC50 ([5]; Human immunodeficiency virus 1, V106A/F227L/L234I (selected by DOR)) was under 5 nM and the IC50 ([5]; V106A/F227L/L234I (selected by DOR)) was 3.4 ± 1.1 nM. The “fold-change of IC50 of the mutant relative to WT” value ([5]; V106A/F227L/L234I vs WT) was 6, the “fold-change of IC50 of the mutant relative to WT” value (HIV-1 RT mutant E138K) was under 2 and the IC50 (HIV-1 RT mutant K103N) was under 7 nM. The IC50 (HIV-1 RT mutant L100I) was under 7 nM, the IC50 (WT HIV-1 [6]) was under 7 nM and the IC50 [7] was under 5 nM. For the same compound, the IC50 (HIV-1 RT mutant Y181I; Human immunodeficiency virus 1) was 2.4 nM, the “fold-change of IC50 of the mutant relative to WT” value (HIV-1 RT mutant Y181I; Y181I vs WT) was 4 and the “fold-change of IC50 of the mutant relative to WT” value (HIV-1 RT mutant M230L) was 3. For the same compound, the “fold-change of IC50 of the mutant relative to WT” value [8] was under 2, the IC50 (WT HIV-1 [9]) was 0.56 ± 0.08 nM and the IC50 (HIV-1 RT mutant K101P; Human immunodeficiency virus 1) was 2.4 nM. The “fold-change of IC50 of the mutant relative to WT” value (HIV-1 RT mutant K101P; K101P vs WT) was 4.
